Biological target: Autotaxin (Homo sapiens (Human), UniProt Q13822)
Assay: Autotaxin LPC Cascade Assay
Type: biochemical
Details: Autotaxin 5 nM, LPC 100 μM, choline oxidase/HRP/Ampliflu Red fluorescence read-out, 2% DMSO, RT; read-out: IC50 ATX Activity
Method: Autotaxin LPC Cascade Assay:
HA130 and Test Compounds:
Prepare a 1 mM stock of HA130 and a 3 mM stock of each compound in 100% DMSO. Perform a 1:3 serial dilution in DMSO (transfer 5 l of compound to 10 l of DMSO). Add 240 l of buffer to generate a top working concentration of 40 µM (HA130) and 120 µM (test compound) in 4% DMSO.
Ampliflu Red—Prepare a stock of 5 mM from 100 mM in 100% DMSO. Further dilute to a working concentration of 400 μM in buffer (8% DMSO).
Together with compound this yields a 2% DMSO final concentration.
Choline Oxidase/HRP—0.8 U/mL CO and 8 U/mL HRP.
Incubate for 10 mins at RT. Add 5 µl of LPC and incubate for 1 hr on the plate shaker. Prepare the CO/HRP and AR immediately prior to use. Add 2.5 l of CO/HRP and follow with 2.5 l AR. Note order of addition, CO/HRP mix before AR. Read fluorescence intensity (ex/em: 530/590 nm) kinetically for 30 min at RT on the Tecan M1000.

| SMILES | IC50 [nM] |
| --- | --- |
| CC(C)[C@@H](NC(=O)c1cc(C(F)(F)F)ccc1F)C(=O)N1CCC2(CC1)C(=O)N(C)C(=O)N2c1ccc(=O)n(C)c1 [Example 23, (R)-2-Fluoro-N-(3-methyl-1-(3-methyl-1-(1-methyl-6-oxo-1,6-dihydropyridin-3-yl)-2,4-dioxo-1,3,8-triazaspiro[4.5]decan-8-yl)-1-oxobutan-2-yl)-5-(trifluoromethyl)benzamide] | 500 to 1000 |
| CN1C(=O)N(c2ccc(=O)n(C)c2)C2(CCN(C(=O)[C@H](NC(=O)c3cc(C(F)(F)F)ccc3F)C3CCCC3)CC2)C1=O [Example 24, (R)—N-(1-Cyclopentyl-2-(3-methyl-1-(1-methyl-6-oxo-1,6-dihydropyridin-3-yl)-2,4-dioxo-1,3,8-triazaspiro[4.5]decan-8-yl)-2-oxoethyl)-2-fluoro-5-(trifluoromethyl)benzamide] | < 500 |
| COc1ccc(N2C(=O)N(C)C(=O)C23CCN(C(=O)[C@H](NC(=O)c2cc(C(F)(F)F)ccc2F)C(C)C)CC3)cn1 [Example 25, (R)-2-Fluoro-N-(1-(1-(6-methoxypyridin-3-yl)-3-methyl-2,4-dioxo-1,3,8-triazaspiro[4.5]decan-8-yl)-3-methyl-1-oxobutan-2-yl)-5-(trifluoromethyl)benzamide] | < 500 |
| CC(C)[C@@H](NC(=O)c1cc(C(F)(F)F)ccc1F)C(=O)N1CCC2(CC1)C(=O)N(C)C(=O)N2c1ccc(OC(F)(F)F)cc1 [Example 26, (R)-2-Fluoro-N-(3-methyl-1-(3-methyl-2,4-dioxo-1-(4-(trifluoromethoxy)phenyl)-1,3,8-triazaspiro[4.5]decan-8-yl)-1-oxobutan-2-yl)-5-(trifluoromethyl)benzamide] | < 500 |
| CC(C)[C@@H](NC(=O)c1cc(C(F)(F)F)ccc1F)C(=O)N1CCC2(CC1)C(=O)N(C)C(=O)N2c1ccc2occc2c1 [Example 27, (R)-2-Fluoro-N-(3-methyl-1-(3-methyl-2,4-dioxo-1-(5-benzofuran)-1,3,8-triazaspiro[4.5]decan-8-yl)-1-oxobutan-2-yl)-5-(trifluoromethyl)benzamide] | < 500 |
| CC(C)[C@@H](NC(=O)c1cc(C(F)(F)F)ccc1F)C(=O)N1CCC2(CC1)C(=O)N(C)C(=O)N2c1ccc2[nH]c(=O)oc2c1 [Example 28, (R)-2-Fluoro-N-(3-methyl-1-(3-methyl-2,4-dioxo-1-(2-oxo-2,3-dihydrobenzo[d]oxazol-6-yl)-1,3,8-triazaspiro[4.5]decan-8-yl)-1-oxobutan-2-yl)-5-(trifluoromethyl)benzamide] | < 500 |
| CC(C)[C@@H](NC(=O)c1cc(C(F)(F)F)ccc1F)C(=O)N1CCC2(CC1)C(=O)N(C)C(=O)N2c1ccc2oc(=O)[nH]c2c1 [Example 29, (R)-2-Fluoro-N-(3-methyl-1-(3-methyl-2,4-dioxo-1-(2-oxo-2,3-dihydrobenzo[d]oxazol-5-yl)-1,3,8-triazaspiro[4.5]decan-8-yl)-1-oxobutan-2-yl)-5-(trifluoromethyl)benzamide] | 500 to 1000 |
| CC(C)[C@@H](NC(=O)c1cc(C(F)(F)F)ccc1F)C(=O)N1CCC2(CC1)C(=O)N(C)C(=O)N2c1ccc2c(c1)OCC(=O)N2 [Example 30, (R)-2-Fluoro-N-(3-methyl-1-(3-methyl-2,4-dioxo-1-(3-oxo-3,4-dihydro-2H-benzo[b][1,4]oxazin-7-yl)-1,3,8-triazaspiro[4.5]decan-8-yl)-1-oxobutan-2-yl)-5-(trifluoromethyl)benzamide] | 500 to 1000 |
| CCc1ccc(F)c(C(=O)N[C@@H](C(=O)N2CCC3(CC2)C(=O)N(C)C(=O)N3c2ccc3[nH]c(=O)oc3c2)C(C)C)c1 [Example 31, (R)-5-Ethyl-2-fluoro-N-(3-methyl-1-(3-methyl-2,4-dioxo-1-(2-oxo-2,3-dihydrobenzo[d]oxazol-6-yl)-1,3,8-triazaspiro[4.5]decan-8-yl)-1-oxobutan-2-yl)benzamide] | < 500 |

From patent publication US10233182B2, “Substituted spirocyclic inhibitors of autotaxin” (X-Rx, Inc., priority 2014, dated 2019)
